Legend:
[1] = target: T1, Human immunodeficiency virus type 1 integrase (Human immunodeficiency virus 1, UniProt Q7ZJM1); experiment: Inhibition of HIV1 integrase 3'-processing activity in presence of MnCl2
[2] = target: T1, Human immunodeficiency virus type 1 integrase; experiment: Inhibition of HIV1 integrase 3'-processing activity in presence of MgCl2
[3] = target: T1, Human immunodeficiency virus type 1 integrase; experiment: Inhibition of HIV1 integrase strand transfer activity in presence of MgCl2 by plate-based electrochemiluminescent assay
[4] = system: U-937; experiment: Cytotoxicity against U937 cell line; assay type: functional; details: Homo sapiens
[5] = target: T1, Human immunodeficiency virus type 1 integrase; experiment: Inhibition of HIV1 integrase strand transfer activity in presence of MnCl2
[6] = target: T1, Human immunodeficiency virus type 1 integrase; experiment: Inhibition of HIV1 integrase strand transfer activity in presence of MgCl2 by gel-based assay
[7] = system: Human immunodeficiency virus 1; experiment: Antiviral activity against HIV1 3B; assay type: functional, organism-based; details: Human immunodeficiency virus 1, 3B
[8] = system: U-937; experiment: Selectivity index (CC50/EC50); assay type: functional

T1 sequence (Q7ZJM1 whole entry): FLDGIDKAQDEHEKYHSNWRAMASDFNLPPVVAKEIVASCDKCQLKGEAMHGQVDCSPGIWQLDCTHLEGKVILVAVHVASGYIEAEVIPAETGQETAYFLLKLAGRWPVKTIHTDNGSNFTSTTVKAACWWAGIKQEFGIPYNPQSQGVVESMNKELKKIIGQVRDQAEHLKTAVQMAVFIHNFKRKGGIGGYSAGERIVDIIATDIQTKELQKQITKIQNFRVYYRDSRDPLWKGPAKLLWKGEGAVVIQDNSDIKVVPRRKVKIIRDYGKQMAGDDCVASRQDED

| IC50 [1] | IC50 [2] | IC50 [3] | IC50 [5] | IC50 [6] | EC50 [7] | Structure (SMILES) | CC50 [4] | Selectivity index [8] |
| --- | --- | --- | --- | --- | --- | --- | --- | --- |
| > 333 µM | 28 µM | 77 µM | 80 µM | 39 µM | > 50 µM | CCOC(=O)C(=O)/C=C(\O)c1ccc2ncc(/C(O)=C/C(=O)C(=O)OCC)c(O)c2c1 | > 200 µM |  |
| > 4.1 µM | 22 µM | 9.1 µM | 0.43 µM | 2.9 µM | 36.3 µM | O=C(O)C(=O)/C=C(\O)c1ccc2ncc(/C(O)=C/C(=O)C(=O)O)c(O)c2c1 | > 200 µM | 5.5 |
| 40 µM | 21 µM | 0.38 µM | 0.25 µM | 0.29 µM | 20 µM | CCOC(=O)C(=O)/C=C(\O)c1ccc2c(c1)c(=O)c(/C(O)=C/C(=O)C(=O)OCC)cn2Cc1ccc(F)cc1 | 191 µM | 9.6 |
|  |  |  |  |  |  | O=C(O)C(=O)/C=C(\O)c1ccc2c(c1)c(=O)c(/C(O)=C/C(=O)C(=O)O)cn2Cc1ccc(F)cc1 | > 200 µM |  |

Source: ChEMBL document CHEMBL1138986, “Novel bifunctional quinolonyl diketo acid derivatives as HIV-1 integrase inhibitors: design, synthesis, biological activities, and mechanism of action” (J Med Chem, 2006)
